Experimental data from patent US8546452B2, “S1P3 receptor antagonist” (TOA Eiyo Ltd., priority 2005, dated 2013).
Like-named read-outs stand apart in the source and are kept apart here.

Columns and labels:
Assay type in all cases: cell-based
hS1P3 = hS1P3 (Homo sapiens, UniProt Q99500); experiment: Suppressive effect on S1P-induced increase in [Ca2+]i, CHO-K1 cells expressing S1P3 (Fura 2-AM), IC50; conditions: S1P solution 50 nmol/L, read-out: hS1P3 suppression IC50
hS1P1 = target: T1, hS1P1 (Homo sapiens, UniProt P21453); experiment: S1P receptor subtype selectivity, S1P-induced [Ca2+]i increase in CHO-K1 cells stably expressing S1P1 (Calcium3)
T1 construct: expressed in transfected cells
T1 sequence (P21453 whole entry): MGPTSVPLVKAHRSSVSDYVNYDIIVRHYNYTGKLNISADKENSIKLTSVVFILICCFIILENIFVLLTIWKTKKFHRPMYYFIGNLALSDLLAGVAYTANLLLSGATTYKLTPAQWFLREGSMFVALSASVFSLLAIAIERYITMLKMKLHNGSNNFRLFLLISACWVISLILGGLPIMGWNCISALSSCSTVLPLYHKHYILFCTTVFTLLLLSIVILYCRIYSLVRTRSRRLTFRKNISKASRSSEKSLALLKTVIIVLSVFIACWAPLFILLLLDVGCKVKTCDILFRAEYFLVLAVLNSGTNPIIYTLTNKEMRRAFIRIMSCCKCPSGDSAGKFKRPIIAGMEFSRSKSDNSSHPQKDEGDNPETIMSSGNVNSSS
Description: (§1) The selectivity to the S1P receptor subtype was examined in the following manner. […] Furthermore, a Calcium3 (Molecular Devices, Inc.) solution prepared in HBSS (+) buffer, which is a fluorescent Ca^2+ indicator, was added, and the cells were incubated for 60 minutes at 37° C. Then, 100 μL of a test compound solution prepared to a concentration of 2×10 μmol/L was added, and the cells were incubated for 20 minutes at 37° C. […] The indicator was prepared and used according to the instruction manual.
(§2) A solution of the test compound was prepared by dissolving each of the test compounds in DMSO to a concentration of 10 mmol/L, and then diluting the solution with an HBSS (+) buffer solution to the predetermined concentration. […] The measurement values were obtained by subtracting the maximum RFU value for the blind test from the maximum RFU values for control or each test compounds. A decrease in the measurement value for the test compound relative to the control was indicated as the suppression rate (%), from which the IC50 value was calculated.

hS1P2 = target: T2, hS1P2 (Homo sapiens, UniProt O95136); experiment: S1P receptor subtype selectivity, S1P-induced [Ca2+]i increase in CHO-K1 cells stably expressing S1P2 (Calcium3)
T2 construct: expressed in transfected cells
T2 sequence (O95136 whole entry): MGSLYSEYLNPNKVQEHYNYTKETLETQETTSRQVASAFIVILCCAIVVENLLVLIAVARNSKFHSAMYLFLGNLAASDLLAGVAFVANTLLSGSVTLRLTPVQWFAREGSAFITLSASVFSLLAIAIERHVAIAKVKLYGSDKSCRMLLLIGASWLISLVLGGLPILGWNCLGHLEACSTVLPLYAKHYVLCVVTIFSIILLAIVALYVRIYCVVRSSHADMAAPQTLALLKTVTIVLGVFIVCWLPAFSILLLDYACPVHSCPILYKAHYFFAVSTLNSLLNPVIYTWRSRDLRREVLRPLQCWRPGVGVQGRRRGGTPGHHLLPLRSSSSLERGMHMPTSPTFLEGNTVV
Description: as §1, §2

[1] = 10 μM, CHO-K1 stably expressing S1P1, S1P solution 100 nmol/L, Calcium3, read-out: Suppression rate at 10 μM (%) hS1P1
[2] = 10 μM, CHO-K1 stably expressing S1P2, S1P solution 100 nmol/L, Calcium3, read-out: Suppression rate at 10 μM (%) hS1P2
[3] = CHO-K1, read-out: Suppression rate at 10 μM (%) hS1P1
[4] = CHO-K1, read-out: Suppression rate at 10 μM (%) hS1P2

Chain of hS1P3 (Q99500 whole entry): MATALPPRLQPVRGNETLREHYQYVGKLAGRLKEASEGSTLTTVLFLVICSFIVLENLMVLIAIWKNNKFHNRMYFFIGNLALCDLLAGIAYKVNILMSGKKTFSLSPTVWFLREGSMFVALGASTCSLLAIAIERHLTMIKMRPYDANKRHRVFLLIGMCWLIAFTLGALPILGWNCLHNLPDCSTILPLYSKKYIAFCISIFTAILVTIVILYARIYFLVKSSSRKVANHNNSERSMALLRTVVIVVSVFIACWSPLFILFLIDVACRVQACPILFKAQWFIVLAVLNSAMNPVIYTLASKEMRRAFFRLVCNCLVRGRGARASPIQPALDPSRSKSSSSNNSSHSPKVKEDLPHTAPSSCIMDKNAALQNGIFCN

Structure (SMILES) | IC50 (hS1P3) | inhibition at 10 µM (hS1P1; [1]) | inhibition at 10 µM (hS1P2; [2]) | inhibition at 10 µM (hS1P1; [3]) | inhibition at 10 µM (hS1P2; [4])
CCOC(=O)C(=NNc1ccc(Cl)cc1)Nc1cccc(F)c1 [Compound 13, ethyl 1-(4-chlorophenylhydrazono)-1-(3-fluorophenylamino)acetate] | 3120 nM | 26.1% | -16.7% | – | –
CCOC(=O)C(=NNc1ccc(Cl)cc1)Nc1ccccc1 [Compound 19, ethyl 1-(4-chlorophenylhydrazono)-1-(phenylamino)acetate] | 3640 nM | -25.4% | -8.6% | – | –
CCOC(=O)C(=NNc1ccc(Cl)cc1)Nc1cccc(C#N)c1 [Compound 20, ethyl 1-(4-chlorophenylhydrazono)-1-(3-cyanophenylamino)acetate] | 2180 nM | – | – | -3.5% | -4.6%
CC(C)(C)NC(=O)C(=NNc1ccc(Cl)cc1)Nc1cccc(F)c1 [Compound 28, N-tert-butyl-[1-(4-chlorophenylhydrazono)-1-(3-fluorophenylamino)]acetamide] | 7970 nM | – | – | 14.6% | 14.2%
CC(C)(C)NC(=O)C(=NNc1ccc(Cl)cc1)Nc1ccc(Cl)cc1 [Compound 29, N-tert-butyl-[1-(4-chlorophenylamino)-1-(4-chlorophenylhydrazono)]acetamide] | 5110 nM | – | – | 29.7% | 17.4%
CC(C)(C)C(=O)C(=NNc1cccc(Cl)c1)Nc1cccc(F)c1 [Compound 41, 1-(3-chlorophenylhydrazono)-1-(3-fluorophenylamino)-3,3-dimethyl-2-butanone] | 3540 nM | 18.4% | 27.1% | – | –
CC(C)(C)C(=O)C(=NNc1cccc(Cl)c1)Nc1ccc(Cl)cc1 [Compound 42, 1-(4-chlorophenylamino)-1-(3-chlorophenylhydrazono)-3,3-dimethyl-2-butanone] | 2890 nM | – | – | 7.9% | 32.9%
CC(C)(C)C(=O)C(=NNc1ccccc1)Nc1cccc(F)c1 [Compound 49, 1-(3-fluorophenylamino)-1-(phenylhydrazono)-3,3-dimethyl-2-butanone] | 5320 nM | 6.6% | 3.6% | – | –
CC(C)(C)C(=O)C(=NNc1ccccc1)Nc1ccc(Cl)cc1 [Compound 50, 1-(4-chlorophenylamino)-1-(phenylhydrazono)-3,3-dimethyl-2-butanone] | 3740 nM | – | – | 25.1% | 13.6%
CC(C)(C)C(=O)C(=NNc1ccccc1)Nc1ccc(Cl)c(Cl)c1 [Compound 52, 1-(3,4-dichlorophenylamino)-1-(phenylhydrazono)-3,3-dimethyl-2-butanone] | 1020 nM | 29.5% | 26.2% | – | –
CC(C)(C)C(=O)C(=NNc1ccc(F)cc1)Nc1cccc(F)c1 [Compound 53, 1-(3-fluorophenylamino)-1-(4-fluorophenylhydrazono)-3,3-dimethyl-2-butanone] | 4470 nM | 27.1% | 18.5% | – | –
COc1ccc(NC(=NNc2ccc(F)cc2)C(=O)C(C)(C)C)cc1 [Compound 57, 1-(4-fluorophenylhydrazono)-1-(4-methoxyphenylamino)-3,3-dimethyl-2-butanone] | 4950 nM | 11.5% | 15% | – | –
Cc1ccc(NN=C(Nc2cccc(F)c2)C(=O)C(C)(C)C)cc1 [Compound 61, 1-(3-fluorophenylamino)-1-(4-methylphenylhydrazono)-3,3-dimethyl-2-butanone] | 3220 nM | -2.9% | 8.1% | – | –
Cc1ccc(NN=C(Nc2ccc(Cl)cc2)C(=O)C(C)(C)C)cc1 [Compound 62, 1-(4-chlorophenylamino)-1-(4-methylphenylhydrazono)-3,3-dimethyl-2-butanone] | 1720 nM | – | – | -9.7% | 7.4%
Cc1ccc(NN=C(Nc2ccc(C)cc2)C(=O)C(C)(C)C)cc1 [Compound 63, 1-(4-methylphenylamino)-1-(4-methylphenylhydrazono)-3,3-dimethyl-2-butanone] | 5710 nM | – | – | -9.1% | -1.4%
Cc1ccc(NN=C(Nc2cc(Cl)cc(Cl)c2)C(=O)C(C)(C)C)cc1 [Compound 64, 1-(3,5-dichlorophenylamino)-1-(4-methylphenylhydrazono)-3,3-dimethyl-2-butanone] | – | – | – | -1% | 9.1%
Cc1ccc(NN=C(Nc2ccc(Cl)c(Cl)c2)C(=O)C(C)(C)C)cc1 [Compound 65, 1-(3,4-dichlorophenylamino)-1-(4-methylphenylhydrazono)-3,3-dimethyl-2-butanone] | 670 nM | 5.1% | 10% | – | –

Structure (SMILES) | IC50 (hS1P3) | inhibition at 10 µM (hS1P1; [1]) | inhibition at 10 µM (hS1P2; [2]) | inhibition at 10 µM (hS1P1; [3]) | inhibition at 10 µM (hS1P2; [4])
CC(C)(C)C(=O)C(=NNc1ccc(Br)cc1)Nc1cccc(F)c1 [Compound 73, 1-(4-bromophenylhydrazono)-1-(3-fluorophenylamino)-3,3-dimethyl-2-butanone] | 1900 nM | 5.1% | 22.3% | – | –
CC(C)(C)C(=O)C(=NNc1ccc(Br)cc1)Nc1ccc(Cl)cc1 [Compound 75, 1-(4-bromophenylhydrazono)-1-(4-chlorophenylamino)-3,3-dimethyl-2-butanone] | 1170 nM | – | – | 17% | 17.9%
CC(C)(C)C(=O)C(=NNc1ccc(Br)cc1)Nc1ccc(Cl)c(Cl)c1 [Compound 80, 1-(4-bromophenylhydrazono)-1-(3,4-dichlorophenylamino)-3,3-dimethyl-2-butanone] | 380 nM | 20.6% | 26.3% | – | –
CC(C)(C)C(=O)C(=NNc1ccc(Cl)c(Cl)c1)Nc1cccc(F)c1 [Compound 104, 1-(3,4-dichlorophenylhydrazono)-1-(3-fluorophenylamino)-3,3-dimethyl-2-butanone] | 430 nM | 28.3% | 18.9% | – | –
C#Cc1ccc(NN=C(Nc2cccc(Cl)c2)C(=O)C(C)(C)C)cc1 [Compound 108, 1-(3-chlorophenylamino)-1-(4-ethynylphenylhydrazono)-3,3-dimethyl-2-butanone] | 840 nM | – | – | 11.1% | 15.8%
CC(C)(C)CC(=O)C(=NNc1ccc(Cl)cc1)Nc1cccc(F)c1 [Compound 113, 1-(4-chlorophenylhydrazono)-1-(3-fluorophenylamino)-4,4-dimethyl-2-pentanone] | 1780 nM | 5.9% | 20.7% | – | –
CCCCC(=O)C(=NNc1ccc(Cl)cc1)Nc1ccc(Cl)cc1 [Compound 115, 1-(4-chlorophenylamino)-1-(4-chlorophenylhydrazono)-2-hexanone] | 2470 nM | – | – | 24.3% | 27%
O=C(C(=NNc1ccc(Cl)cc1)Nc1ccc(F)cc1)c1ccco1 [Compound 118, 1-(4-chlorophenylhydrazono)-1-(4-fluorophenylamino)-2-(2-furyl)-2-ethanone] | 3850 nM | – | – | – | –
O=C(C(=NNc1ccc(Cl)cc1)Nc1ccc(Br)cc1)c1ccco1 [Compound 119, 1-(4-bromophenylamino)-1-(4-chlorophenylhydrazono)-2-(2-furyl)-2-ethanone] | 4230 nM | – | – | – | –
O=C(C(=NNc1ccc(Cl)cc1)Nc1cccc(C(F)(F)F)c1)c1ccco1 [Compound 120, 1-(4-chlorophenylhydrazono)-1-(3-trifluoromethylphenylamino)-2-(2-furyl)-2-ethanone] | 5450 nM | – | – | – | –
CC(C)(C)C(=O)C(=NNc1ccc(Cl)c(Cl)c1)Nc1cccc(Cl)c1 [Compound 123, 1-(3-chlorophenylamino)-1-(3,4-dichlorophenylhydrazono)-3,3-dimethyl-2-butanone] | 340 nM | – | – | – | –
CC(C)(C)C(=O)C(=NNc1ccc(Cl)c(Cl)c1)Nc1ccc(Cl)cc1 [Compound 124, 1-(4-chlorophenylamino)-1-(3,4-dichlorophenylhydrazono)-3,3-dimethyl-2-butanone] | 450 nM | – | – | – | –
O=C(C(=NNc1ccc(Cl)cc1)Nc1ccc(Cl)cc1)c1cccs1 [Compound 125, 1-(4-chlorophenylamino)-1-(4-chlorophenylhydrazono)-2-(2-thienyl)-2-ethanone] | 8290 nM | – | – | – | –
C#Cc1ccc(NC(=NNc2ccc(Cl)c(Cl)c2)C(=O)C(C)(C)C)cc1 [Compound 132, 1-(3,4-dichlorophenylhydrazono)-1-(4-ethynylphenylamino)-3,3-dimethyl-2-butanone] | 820 nM | – | – | – | –
CC(C)(C)C(=O)C(=NNc1ccc(Cl)cc1)Nc1ccc(Cl)c(F)c1 [Compound 135, 1-(4-chloro-3-fluorophenylamino)-1-(4-chlorophenylhydrazono)-3,3-dimethyl-2-butanone] | 900 nM | – | – | – | –
CCCCC(=O)C(=NNc1ccc(Cl)cc1)Nc1cccc(Cl)c1 [Compound 141, 1-(3-chlorophenylamino)-1-(4-chlorophenylhydrazono)-2-hexanone] | 1990 nM | – | – | – | –
